Assay results from patent publication US8063012B2, “Neuroprotective peptide inhibitors of AP-1 signaling and uses therefor” (Phylogica Limited, priority 2006, dated 2011).
“Also recorded” adds a separate entry of the source. Non-standard residues stand in square brackets, D forms with d. Residues, ends and D or L forms follow the SMILES beside them. No end group written: not given here.

How the values were obtained:
[1] = system: primary cortical neuronal cultures; assay: Glutamate excitotoxicity in primary cortical neuronal cultures, neuronal viability by MTS assay; type: cell-based, rat; settings: for neuronal viability following glutamate excitotoxicity: MTS 18 h
Procedure: Neurons were resuspended in Neurobasal (NB; Invitrogen) containing 2% B27 supplement (B27; Invitrogen). Before seeding, culture vessels comprising either a 96-well plastic plate or 24-well plastic plate with 13 mm glass coverslips (ProSciTech, Australia), were coated with poly-D-lysine (50 μg/mL; 70-150K; Sigma) and incubated overnight at room temperature. […] Neurons were plated to obtain approximately 10,000 viable neurons for each well of a 96-well plate, or 200,000 viable neurons per well of a 24-well plate, on day in vitro (DIV) […]. […] On DIV 4, one third of the culture medium was removed and replaced with fresh NB/2% B27 containing the mitotic inhibitor, cytosine arabinofuranoside (Sigma) at 1 μM concentration. On DIV 8, one half of the culture medium was replaced with NB/2% B27.
(§1) To induce glutamate excitotoxicity in the cortical neuronal cultures (96-well plate format), 50 μl of conditioned media containing 200 μM glutamate was added to culture wells containing 50 μl conditioned media (100 μM final glutamate concentration). Cultures were incubated at 37° C. in a CO2 incubator for 5 minutes, after which time the media was replaced with 100 μl of 50% NB/2% N2 and 50% balance salt solution (NB/N2:BSS).
Untreated and glutamate-treated control samples received media additions with and without glutamate respectively.
(§2) Eighteen hours after glutamate exposure, neuronal cultures were examined by light microscopy for qualitative assessment of neuronal damage. Neuronal viability was quantitatively measured by 3-(4,5,dimethyliazol-2-yl)-5-(3-carboxymethoxy-phenyl)-2-(4-sulfophenyl)-2H-tetrazolium salt (MTS) assay (Promega, Australia). The MTS assay measures the mitochondrial conversion of the tetrazolium salt to a water-soluble brown formazan salt, which is detected spectrophotometrically at 495 nm. MTS absorbance data was converted to reflect proportional cell viability relative to both the untreated and glutamate treated controls. […] All assays were performed with quadruplicate sister neuronal cultures repeated a minimum of four times independently.

[2] = system: primary cortical neuronal cultures; assay: Light microscopy assessment of neuronal damage after glutamate exposure; type: cell-based, rat; settings: for neurons that appeared intact and viable: Sprague-Dawley, rat, 18 hours; for neuronal morphology (cellular rounding, survival) after glutamate exposure: light microscopy, one hour to 18 hours post glutamate exposure
Procedure: Cortical neuronal cultures were established as described by Meloni et al., Neuroscience 108, 17-26, 2001. Briefly, cortical tissue from E18-E19 Sprague-Dawley rats was dissociated in Dulbelcco's Modified Eagle Medium (DMEM; Invitrogen, Australia) supplemented with 1.3 mM L-cysteine, 0.9 mM NaHCO3, 10 units/ml papain (Sigma, USA) and 50 units/ml DNase (Sigma) and washed in cold DMEM/10% (v/v) horse serum. Neurons were resuspended in Neurobasal (NB; Invitrogen) containing 2% B27 supplement (B27; Invitrogen). Before seeding, culture vessels comprising either a 96-well plastic plate or 24-well plastic plate with 13 mm glass coverslips (ProSciTech, Australia), were coated with poly-D-lysine (50 μg/mL; 70-150K; Sigma) and incubated overnight at room temperature. The poly-D-lysine was removed and replaced with NB (containing 2% B27; 4% fetal bovine serum; 1% horse serum; 62.5 μM glutamate; 25 μM 2-mercaptoethanol; and 30 μg/mL streptomycin and 30 μg/mL penicillin). Neurons were plated to obtain approximately 10,000 viable neurons for each well of a 96-well plate, or 200,000 viable neurons per well of a 24-well plate, on day in vitro (DIV) […]. Neuronal cultures were maintained in a CO2 incubator (5% CO2, 95% air balance, 98% humidity) at 37° C. On DIV 4, one third of the culture medium was removed and replaced with fresh NB/2% B27 containing the mitotic inhibitor, cytosine arabinofuranoside (Sigma) at 1 μM concentration. On DIV 8, one half of the culture medium was replaced with NB/2% B27. Cultures were used on DIV 11 or 12, and consisted of >95% neurons.
as §1, §2

[3] = 2 μM extracellular concentration
[4] = 5 μM extracellular peptide, 100 μM glutamate 5 min, no insult = 100%
[5] = 1 μM extracellular concentration

| Compound | neuroprotection in the glutamate model ([1]; 5 μM extracellular peptide) | neuroprotection in the glutamate model ([1]; 5 μM extracellular peptide, listed as PYC35L-Scram-TAT) | neurons that appeared intact and viable [2] | neuronal morphology (cellular rounding, survival) after glutamate exposure [2] | neuroprotection in the glutamate model ([1]; 5 μM extracellular peptide, listed as PYC36L Scram-TAT) | neuroprotection following glutamate excitotoxicity [1, 3] | neuronal viability following glutamate excitotoxicity [1, 4] [%] | extracellular concentration providing significant neuroprotection ([1]; glutamate excitotoxicity, dose response 0.1-10 μM) [µM] | neuroprotection following glutamate excitotoxicity [1, 5] | neuroprotection compared with JNKI-1D-TAT ([1]; 1 μM concentration) | neuronal viability following glutamate excitotoxicity ([1]; 1 μM extracellular peptide) [%] |
| --- | --- | --- | --- | --- | --- | --- | --- | --- | --- | --- | --- |
| CC[C@@H](C)[C@@H](NC(=O)CNC(=O)[C@@H](CCC(=O)O)NC(=O)[C@@H](CO)NC(=O)[C@@H](CCCNC(=N)N)NC(=O)[C@@H](CCC(=O)O)NC(=O)[C@H](NC(=O)[C@H](N)CCCCN)[C@H](C)CC)C(=O)N[C@H](CO)C(=O)N[C@H](CCC(N)=O)C(=O)N[C@H](CO)C(=O)N[C@H](C)C(=O)N[C@H](CCCNC(=N)N)C(=O)N[C@H](CO)C(=O)N[C@H](CCCNC(=N)N)C(=O)NCC(=O)N[C@H](Cc1ccc(O)cc1)C(=O)N[C@H](CO)C(=O)NCC(=O)N[C@H](CCCNC(=N)N)C(=O)N[C@H](CCCNC(=N)N)C(=O)N[C@H](CCCNC(=N)N)C(=O)N[C@H](CCC(N)=O)C(=O)N[C@H](CCCNC(=N)N)C(=O)N[C@H](CCCNC(=N)N)C(=O)N[C@H](CCCCN)C(=O)N[C@H](CCCCN)C(=O)N[C@H](CCCNC(=N)N)C(=O)NCC(=O)O [PYC35D Scram-TAT, reference compound] (H-[dK][dI][dE][dR][dS][dE]G[dI][dS][dQ][dS][dA][dR][dS][dR]G[dY][dS]G[dR][dR][dR][dQ][dR][dR][dK][dK][dR]G-OH; N-terminus and C-terminus assumed) | failed to provide neuroprotection | reduced neuroprotection | 2-5% | displayed cellular rounding | – | – | – | – | – | – | – |
| CC[C@@H](C)[C@@H](NC(=O)CNC(=O)CNC(=O)[C@@H](CCCNC(=N)N)NC(=O)[C@@H](CCCNC(=N)N)NC(=O)[C@H](N)CCCCN)C(=O)N[C@H](CC(C)C)C(=O)N[C@H](CCCNC(=N)N)C(=O)N[C@H](Cc1ccc(O)cc1)C(=O)NCC(=O)N[C@H](CCC(N)=O)C(=O)N1CCC[C@@H]1C(=O)N[C@H](CCC(N)=O)C(=O)N[C@H](CO)C(=O)N[C@H](CCC(N)=O)C(=O)NCC(=O)N[C@H](CCCNC(=N)N)C(=O)N[C@H](CCCNC(=N)N)C(=O)N[C@H](CCCNC(=N)N)C(=O)N[C@H](CCC(N)=O)C(=O)N[C@H](CCCNC(=N)N)C(=O)N[C@H](CCCNC(=N)N)C(=O)N[C@H](CCCCN)C(=O)N[C@H](CCCCN)C(=O)N[C@H](CCCNC(=N)N)C(=O)NCC(=O)O [PYC36D Scram-TAT, reference compound] (H-[dK][dR][dR]GG[dI][dL][dR][dY]G[dQ][dP][dQ][dS][dQ]G[dR][dR][dR][dQ][dR][dR][dK][dK][dR]G-OH; N-terminus and C-terminus assumed) | failed to provide neuroprotection | – | 2-5% | displayed cellular rounding | reduced neuroprotection | – | – | – | – | – | – |
| GRKKRRQRRRGAYQSIRSGGIESSSKRER [PYC35L-TAT] | – | – | – | did not begin to round and survived glutamate excitotoxicity | – | neuroprotective trend | 42 | ≥ 2 | – | – | – |
| GRKKRRQRRRGGLQGRRQPGQQPQGRWSGRALPAHR [PYC38/39L-TAT] | – | – | – | did not begin to round and survived glutamate excitotoxicity | – | initial significant neuroprotection | 69 | – | neuroprotective trend | – | – |
| GRKKRRQRRRGGLQGRRRQGYQSIKP [PYC36L-TAT] | – | – | – | did not begin to round and survived glutamate excitotoxicity | – | – | 64 | – | significant level of neuroprotection | greater neuroprotection than JNKI-1D-TAT | 30 |
| GRKKRRQRRRGLINQSYAYPYIY [PYC19L-TAT] | – | – | – | did not begin to round and survived glutamate excitotoxicity | – | neuroprotective trend | 32 | – | neuroprotective trend; also recorded: significant neuroprotection | – | – |
| GRKKRRQRRRGVSINQEHHRLLPL [PYC41L-TAT] | – | – | – | did not begin to round and survived glutamate excitotoxicity | – | initial significant neuroprotection | 38 | – | neuroprotective trend | – | – |
